Data published in patent US11214803B2, “Modulators of YAP1 expression” (Ionis Pharmaceuticals, Inc., priority 2019, dated 2022).
Strand notation (5' to 3'): a small letter for the sugar, then the base; units joined by * are phosphorothioate-linked, units joined directly phosphodiester-linked; [ ] holds rarer units or linkages, { } end groups; capitals alone tell only the bases. k = constrained ethyl (cEt); [5mC] = 5-methylcytosine; d = 2'-deoxy (DNA)

System: Yap1 mRNA
Assay: Antisense inhibition of human Yap1 in A-431 cells by cEt gapmers, single dose (Example 3, RTS36584)
Assay type: cell-based
Details: Table 9; A-431 cells, 5,000 cells per well, free uptake, 2,000 nM, approximately 48 hours; RTS36584; normalized to RIBOGREEN; Yap1 mRNA relative to untreated control cells
Protocol: Modified oligonucleotides were designed to target a Yap1 nucleic acid and were tested for their effect on Yap1 mRNA level in vitro. The modified oligonucleotides were tested in a series of experiments that had similar culture conditions. Cultured A-431 cells at a density of 5,000 cells per well were treated using free uptake with 2,000 nM of modified oligonucleotide. After a treatment period of approximately 48 hours, RNA was isolated from the cells and Yap1 mRNA levels were measured by quantitative real-time RTPCR. Human primer probe set RTS36584 (forward sequence […], designated herein as SEQ ID NO.: 14; reverse sequence […], designated herein as SEQ ID NO.: 15; probe sequence […], designated herein as SEQ ID NO.: 16) was used to measure mRNA levels. Yap1 mRNA levels were normalized to total RNA content, as measured by RIBOGREEN®. Results are presented in the tables below as percent control of the amount of Yap1 mRNA relative to untreated control cells (% UTC). The modified oligonucleotides with percent control values marked with an asterisk (*) target the amplicon region of the primer probe set. Additional assays may be used to measure the potency and efficacy of the modified oligonucleotides targeting the amplicon region.
The newly designed modified oligonucleotides in the Tables below were designed as 3-10-3 cEt gapmers. The gapmers are 16 nucleosides in length, wherein the central gap segment comprises of ten 2′-deoxynucleosides and is flanked by wing segments on the 5′ direction and the 3′ direction comprising three nucleosides each. Each nucleoside in the 5′ wing segment and each nucleoside in the 3′ wing segment has a cEt sugar modification. The internucleoside linkages throughout each gapmer are phosphorothioate (P═S) linkages. All cytosine residues throughout each gapmer are 5-methylcytosines.
“Start site” indicates the 5′-most nucleoside to which the gapmer is targeted in the human gene sequence. “Stop site” indicates the 3′-most nucleoside to which the gapmer is targeted human gene sequence. […] Activity of the modified oligonucleotide may be defined in a different experiment.

Point of comparison: “958801 (antisense k[5mC]*kG*k[5mC]*dT*dA*dG*d[5mC]*dA*d[5mC]*dG*d[5mC]*dG*d[5mC]*kG*k[5mC]*kT) [Compound 958801]”, “YAP1 (% UTC)” value 131 % UTC. Against it:
- 958646 (kT*kA*kT*dT*dA*dT*dA*dT*dG*dG*d[5mC]*dT*dA*kA*kG*k[5mC]; antisense) [Compound 958646] — lower, 26 % UTC
- 958436 (antisense kT*k[5mC]*k[5mC]*d[5mC]*dT*dT*dG*dA*d[5mC]*dG*dG*dA*dG*kG*k[5mC]*k[5mC]) [Compound 958436] — lower, 124 % UTC
- 958711 (antisense k[5mC]*k[5mC]*kA*dA*dA*dT*dA*dA*dG*dG*dA*dT*d[5mC]*kT*kG*kT) [Compound 958711] — lower, 34 % UTC
- 958771 (antisense k[5mC]*kT*kA*d[5mC]*dA*dG*dA*d[5mC]*dG*dA*dA*dT*dT*k[5mC]*k[5mC]*kA) [Compound 958771] — lower, 18 % UTC
- 958571 (k[5mC]*kA*kA*d[5mC]*dA*dA*d[5mC]*dA*dT*dG*d[5mC]*dT*dA*kT*kG*kT; antisense) [Compound 958571] — lower, 43 % UTC
- 958611 (antisense kG*kA*kG*d[5mC]*dA*dT*dG*d[5mC]*dT*d[5mC]*dT*dT*dA*k[5mC]*kA*kT) [Compound 958611] — lower, 92 % UTC

Same assay, conditions: Table 10; A-431 cells, 5,000 cells per well, free uptake, 2,000 nM oligonucleotide, approx. 48 hours; primer probe set RTS36584; Yap1 mRNA normalized to RIBOGREEN, percent of untreated control

Point of comparison: “958562 (k[5mC]*kA*kT*dT*dG*dA*dA*dA*dG*dA*d[5mC]*d[5mC]*d[5mC]*kT*kT*kA; antisense) [Compound 958562]”, “YAP1 (% UTC)” value 6 % UTC. Against it:
- 958807 (kT*k[5mC]*kA*dT*dT*dG*dT*dA*dG*dT*d[5mC]*dT*dG*kT*k[5mC]*kT; antisense) [Compound 958807] — lower, 3 % UTC

Same assay, conditions: Table 11; A-431 cells, 5,000 cells per well, free uptake, 2,000 nM oligonucleotide, approx. 48 hours; primer probe set RTS36584; Yap1 mRNA normalized to RIBOGREEN, percent of untreated control

Point of comparison: “958793 (antisense k[5mC]*k[5mC]*kG*d[5mC]*dA*dT*dT*dG*d[5mC]*d[5mC]*dT*dA*dA*kG*kA*kG) [Compound 958793]”, “YAP1 (% UTC)” value 9 % UTC. Against it:
- 958588 (kG*kT*kG*dT*dA*d[5mC]*dT*dT*dA*dG*dG*dT*dG*kA*k[5mC]*kT; antisense) [Compound 958588] — higher, 10 % UTC
- 958628 (antisense kG*k[5mC]*kT*dA*dA*d[5mC]*dT*dA*d[5mC]*dA*dT*dT*dG*k[5mC]*kA*kG) [Compound 958628] — higher, 81 % UTC
- 958618 (antisense kA*kG*k[5mC]*d[5mC]*dA*dA*dG*dA*dG*dG*dT*dG*dG*kT*k[5mC]*kT) [Compound 958618] — higher, 36 % UTC
- 958678 (kG*kG*kA*dG*dG*dA*dG*dT*d[5mC]*dA*d[5mC]*d[5mC]*dA*kT*kG*kG; antisense) [Compound 958678] — higher, 74 % UTC

Same assay, conditions: Table 12; A-431 cells, 5,000 cells per well, free uptake, 2,000 nM modified oligonucleotide, approx. 48 hours; RTS36584; normalized to RIBOGREEN; Yap1 mRNA relative to untreated control cells

Point of comparison: “958644 (antisense kA*kT*kG*dA*dT*d[5mC]*dA*dA*dA*d[5mC]*d[5mC]*dT*dT*kT*kT*k[5mC]) [Compound 958644]”, “YAP1 (% UTC)” value 5 % UTC. Against it:
- 958769 (antisense k[5mC]*kA*kT*dT*dG*d[5mC]*d[5mC]*dA*d[5mC]*dG*dA*dT*d[5mC]*kT*kA*kA) [Compound 958769] — higher, 36 % UTC
- 958679 (kG*kT*kA*dA*d[5mC]*dT*dG*d[5mC]*d[5mC]*dA*d[5mC]*dA*dG*kT*kT*kA; antisense) [Compound 958679] — higher, 77 % UTC

Same assay, conditions: Table 13; A-431 cells, 5,000 cells per well, free uptake, 2,000 nM modified oligonucleotide, approx. 48 hours; RTS36584; normalized to RIBOGREEN; Yap1 mRNA relative to untreated control cells

Point of comparison: “958745 (antisense kT*k[5mC]*k[5mC]*d[5mC]*dA*dG*d[5mC]*d[5mC]*dG*d[5mC]*dA*dT*dG*kG*k[5mC]*kT) [Compound 958745]”, “YAP1 (% UTC)” value 78 % UTC. Against it:
- 958765 (antisense kG*kT*kA*d[5mC]*dA*dG*dG*dA*dG*dA*dG*dA*dT*kT*kG*k[5mC]) [Compound 958765] — lower, 37 % UTC

Same assay, conditions: Table 26; Yap1 mRNA by 3-10-3 cEt gapmers targeting SEQ ID NO.: 1, and 2; percent of untreated control

For “1075436 (antisense k[5mC]*k[5mC]*kT*dT*dA*dA*dA*d[5mC]*dG*dA*dT*dA*dA*kA*kG*kT) [compound 1075436]”, the “YAP1 (% UTC)” value was 89 % UTC.

Same assay, conditions: Table 27; Yap1 mRNA by 3-10-3 cEt gapmers targeting SEQ ID NO.: 1, and 2; percent of untreated control

Point of comparison: “1076365 (antisense kT*kA*kA*dG*dA*dA*dG*dG*dG*d[5mC]*d[5mC]*dA*dA*kT*kG*kG) [compound 1076365]”, “YAP1 (% UTC)” value 15 % UTC. Against it:
- 1074285 (antisense kG*k[5mC]*kA*dA*dA*dA*d[5mC]*dG*dA*dG*dG*dG*dT*k[5mC]*kA*kA) [compound 1074285] — higher, 17 % UTC
- 1075501 (k[5mC]*kA*kT*dA*dA*dA*dT*dT*dA*dA*dG*d[5mC]*d[5mC]*kA*kA*k[5mC]; antisense) [compound 1075501] — higher, 67 % UTC

Same assay, conditions: Table 28; Yap1 mRNA as percent of untreated control; 3-10-3 cEt gapmers targeting SEQ ID NO.: 1, and 2

Point of comparison: “1075566 (kA*kT*kA*dT*dA*dT*dA*dA*d[5mC]*dA*dG*dG*d[5mC]*k[5mC]*kA*k[5mC]; antisense) [compound 1075566]”, “YAP1 (% UTC)” value 50 % UTC. Against it:
- 1074158 (kG*kA*kG*d[5mC]*dG*dA*dG*dG*dG*d[5mC]*dT*dA*d[5mC]*kG*k[5mC]*k[5mC]; antisense) [compound 1074158] — higher, 72 % UTC
- 1074574 (DNA k[5mC]*kA*kT*dT*dA*dT*dG*dA*dA*d[5mC]*d[5mC]*dT*dA*k[5mC]*kT*k[5mC]) [compound 1074574] — lower, 17 % UTC
- 1075854 (k[5mC]*kT*kT*dA*dT*dA*dA*dT*dA*dG*dA*dG*d[5mC]*kT*kA*kA; antisense) [compound 1075854] — higher, 52 % UTC
- 1076270 (kT*kA*kA*d[5mC]*dA*dA*dT*dA*dG*dT*dA*dG*dA*k[5mC]*kG*kA; antisense) [compound 1076270] — lower, 28 % UTC
- 1074542 (kA*kG*kG*d[5mC]*dA*d[5mC]*dT*dA*dT*d[5mC]*d[5mC]*dA*d[5mC]*kA*kG*kT; antisense) [compound 1074542] — lower, 21 % UTC

Same assay, conditions: Table 29; Yap1 mRNA as percent of untreated control; 3-10-3 cEt gapmers targeting SEQ ID NO.: 1, and 2

Point of comparison: “1074863 (kA*kT*kA*dT*dG*dA*dG*d[5mC]*dA*dT*dG*d[5mC]*dT*k[5mC]*kT*kT; antisense) [compound 1074863]”, “YAP1 (% UTC)” value 41 % UTC. Against it:
- 1074415 (kG*k[5mC]*k[5mC]*dA*dA*d[5mC]*dT*dG*dT*dG*dA*dA*dA*kG*kA*kG; antisense) [compound 1074415] — lower, 10 % UTC
- 1074959 (antisense kT*kT*kA*dA*d[5mC]*d[5mC]*d[5mC]*dG*dG*dG*dT*dT*dT*kT*kT*kG) [compound 1074959] — higher, 128 % UTC
- 1075279 (antisense k[5mC]*kT*kA*dT*dA*d[5mC]*dT*dA*dA*d[5mC]*dA*dT*dT*k[5mC]*kA*k[5mC]) [compound 1075279] — higher, 52 % UTC
- 1076239 (kG*kT*kT*dT*dA*dA*dA*dA*dA*dA*dA*dA*d[5mC]*kG*kG*kG; antisense) [compound 1076239] — higher, 75 % UTC

Same assay, conditions: Table 34; Yap1 mRNA as percent of untreated control; 3-10-3 cEt gapmers targeting SEQ ID NO: 1 and 2; single dose

Point of comparison: “1075540 (kG*k[5mC]*kT*dT*dA*dA*dG*dG*dG*dA*dT*dG*dG*kA*kA*k[5mC]; antisense) [compound 1075540]”, “YAP1 (% UTC)” value 78 % UTC. Against it:
- 1075188 (kA*kG*kT*d[5mC]*dA*dA*d[5mC]*d[5mC]*dT*dG*dT*dA*dA*kT*kT*kA; antisense) [compound 1075188] — lower, 14 % UTC
- 1075124 (kG*kT*kA*dA*dA*dA*dA*d[5mC]*d[5mC]*dT*dG*dG*dG*kT*kT*kT; antisense) [compound 1075124] — lower, 58 % UTC

Same assay, conditions: Table 35; Yap1 mRNA as percent of untreated control; 3-10-3 cEt gapmers targeting SEQ ID NO: 1 and 2; single dose

Point of comparison: “1074133 (kG*k[5mC]*kG*dG*d[5mC]*d[5mC]*d[5mC]*d[5mC]*dG*d[5mC]*dA*dT*d[5mC]*k[5mC]*k[5mC]*k[5mC]; antisense) [compound 1074133]”, “YAP1 (% UTC)” value 101 % UTC. Against it:
- 1074165 (k[5mC]*k[5mC]*k[5mC]*dA*dG*dG*d[5mC]*dG*dA*dG*d[5mC]*dG*dA*kG*kG*kG; antisense) [compound 1074165] — lower, 90 % UTC
